≈ marks a conversion by molar mass, not a printed value.
What was measured:
[1] = Inhibition of quorum sensing system in Pseudomonas aeruginosa PAO1 assessed as inhibition of pyocyanin production at 256 ug/ml incubated for 24 hrs by absorbance based assay; conditions: dose 256.0 µg/ml
Pseudomonas aeruginosa [2] = assay: Antibacterial activity against Pseudomonas aeruginosa 27853 assessed as inhibition of bacterial growth at 32 microg/ml incubated for 24 hrs in presence of Ciprofloxacin by absorbance based microplate reader analysis relative to control; type: functional; design: scale not given: the % may be the effect or the level left; conditions: dose 32 µg/ml
Pseudomonas aeruginosa [3] = assay: Antibacterial activity against Pseudomonas aeruginosa 27853 assessed as inhibition of bacterial growth at 32 microg/ml incubated for 24 hrs in presence of Clarithromycin by absorbance based microplate reader analysis relative to control; type: functional; design: scale not given: the % may be the effect or the level left; conditions: dose 32 µg/ml
Pseudomonas aeruginosa [4] = assay: Antibiofilm activity against Pseudomonas aeruginosa PAO1 assessed as inhibition of biofilm formation at 64 microg/ml incubated for 24 hrs by BacTiter Glo reagent based luminescence analysis relative to control; type: functional; design: scale not given: the % may be the effect or the level left; conditions: dose 64 µg/ml
Pseudomonas aeruginosa [5] = assay: Antibiofilm activity against Pseudomonas aeruginosa PAO1 assessed as inhibition of biofilm formation incubated at 50 uM incubated for 24 hrs by crystal violet staining based analysis relative to control; type: functional; design: scale not given: the % may be the effect or the level left
Pseudomonas aeruginosa [6] = assay: Antimicrobial activity against Pseudomonas aeruginosa ATCC 9027 assessed as reduction in microbial growth by serial dilution method; type: functional, organism-based
Staphylococcus aureus [7] = assay: Antibiofilm activity against Staphylococcus aureus ATCC 6538 assessed as inhibition of biofilm formation incubated for 24 hrs by crystal violet staining based analysis; type: functional, organism-based; conditions: ATCC 6538, 24 h
Staphylococcus aureus [8] = assay: Antibiofilm activity against Staphylococcus aureus ATCC 29213 at 3.1 ug/ml measured after 24 hrs by crystal violet staining based analysis relative to control; type: functional; conditions: dose 3.1 µg/ml
Staphylococcus aureus [9] = assay: Antibiofilm activity against Staphylococcus aureus BAA 1708 at 3.1 ug/ml measured after 24 hrs by crystal violet staining based analysis relative to control; type: functional; conditions: dose 3.1 µg/ml
Staphylococcus aureus [10] = assay: Antibiofilm activity against Staphylococcus aureus ATCC 25923 at 3.1 ug/ml measured after 24 hrs by crystal violet staining based analysis relative to control; type: functional; conditions: dose 3.1 µg/ml
Pseudomonas aeruginosa [11] = assay: Antibiofilm activity against Pseudomonas aeruginosa PAO1 assessed as inhibition of biofilm formation at 100 microg/ml relative to control; type: functional; design: scale not given: the % may be the effect or the level left; conditions: dose 100 µg/ml
Staphylococcus aureus [12] = assay: Antibacterial activity against Staphylococcus aureus MTCC 96 assessed as reduction in microbial growth after 24 hrs by CLSI based microdilution method; type: functional
Staphylococcus aureus [13] = assay: Antibacterial activity against Staphylococcus aureus MLS16 MTCC 2940 assessed as bacterial growth inhibition measured after 24 hrs by microdilution assay; type: functional
Micrococcus luteus = assay: Antibacterial activity against Micrococcus luteus MTCC 2470 assessed as inhibition of bacterial growth incubated for 24 hrs by agar well diffusion method; type: functional
Pseudomonas aeruginosa [14] = assay: Antibiofilm activity against Pseudomonas aeruginosa ATCC 27853 assessed as reduction in biofilm formation at 1/6 times of MIC after 24 hrs by crystal violet staining based assay; type: functional; design: scale not given: the % may be the effect or the level left
Pseudomonas aeruginosa [15] = assay: Antibiofilm activity against Pseudomonas aeruginosa PAO1 assessed as inhibition of biofilm formation at 10 microg/ml relative to control; type: functional; design: scale not given: the % may be the effect or the level left; conditions: dose 10 µg/ml
Pseudomonas aeruginosa [16] = assay: Antimicrobial activity against Pseudomonas aeruginosa PAO1 assessed as inhibition of microbial growth by microdilution broth method; type: functional
Pseudomonas aeruginosa [17] = assay: Antibiofilm activity against Pseudomonas aeruginosa PAO1 assessed as inhibition of biofilm formation incubated for 8 hrs by crystal violet based; type: functional, organism-based; conditions: PAO1, 8 h
Pseudomonas aeruginosa [18] = assay: Antibiofilm activity against Pseudomonas aeruginosa assessed as reduction in biofilm formation incubated for 24 hrs by microscopic analysis; type: functional, organism-based
[19] = Inhibition of quorum sensing system in Pseudomonas aeruginosa PAO1 assessed as inhibition of pyocyanin production at 12.5 uM incubated for 24 hrs by absorbance based assay relative to control
Pseudomonas aeruginosa [20] = assay: Antibiofilm activity against Pseudomonas aeruginosa PAO1 assessed as reduction in biofilm formation at 50 uM relative to control; type: functional; design: scale not given: the % may be the effect or the level left
Pseudomonas aeruginosa [21] = assay: Antibiofilm activity against Pseudomonas aeruginosa PAO1 assessed as reduction in biofilm formation at 25 uM relative to control; type: functional; design: scale not given: the % may be the effect or the level left
Pseudomonas aeruginosa [22] = assay: Antibiofilm activity against Pseudomonas aeruginosa PAO1 assessed as reduction in biofilm formation at 12.5 uM relative to control; type: functional; design: scale not given: the % may be the effect or the level left
Pseudomonas aeruginosa [23] = assay: Antibiofilm activity against Pseudomonas aeruginosa PAO1 assessed as reduction in biofilm formation at 100 uM incubated for 24 hrs by crystal violet staining based analysis relative to control; type: functional; design: scale not given: the % may be the effect or the level left
[24] = Inhibition of quorum sensing system in Pseudomonas aeruginosa PA14 assessed as inhibition of pyocyanin production
Acinetobacter baumannii [25] = assay: Antibiofilm activity against Acinetobacter baumannii ATCC 19606 assessed as inhibition of biofilm formation at 66.5 ug/ml by crystal violet assay; type: functional; design: scale not given: the % may be the effect or the level left; conditions: dose 66.5 µg/ml
Pseudomonas aeruginosa [26] = assay: Anti-motility activity against Pseudomonas aeruginosa PAO1 assessed as reduction in swarming at 50 ug/ml incubated for 16 hrs by crystal violet staining analysis; type: functional; design: scale not given: the % may be the effect or the level left; conditions: dose 50 µg/ml
Pseudomonas aeruginosa [27] = assay: Anti-motility activity against Pseudomonas aeruginosa PAO1 assessed as reduction in swarming at 100 ug/ml incubated for 16 hrs by crystal violet staining analysis; type: functional; design: scale not given: the % may be the effect or the level left; conditions: dose 100 µg/ml
Pseudomonas aeruginosa [28] = assay: Antibacterial activity against Pseudomonas aeruginosa 27853 assessed as inhibition of bacterial growth at 3.2 microg/ml incubated for 24 hrs by absorbance based microplate reader analysis relative to control; type: functional; design: scale not given: the % may be the effect or the level left; conditions: dose 3.2 µg/ml
Staphylococcus aureus [29] = assay: Antibiofilm activity against methicillin-resistant Staphylococcus aureus assessed as inhibition of biofilm formation incubated for 8 hrs by crystal violet staining based analysis; type: functional, organism-based
Staphylococcus aureus [30] = assay: Antibacterial activity against Staphylococcus aureus assessed as bacterial growth inhibition; type: functional, organism-based
Enterococcus faecium = assay: Antibacterial activity against Vancomycin-resistant Enterococcus faecium ATCC 51559 assessed as reduction in bacterial growth incubated for 18 hrs by spectrophotometry based analysis; type: functional, organism-based; conditions: ATCC 51559, 18 h
Staphylococcus aureus [31] = assay: Antibiofilm activity against Staphylococcus aureus ATCC 25923 assessed as inhibition of biofilm formation; type: functional, organism-based
Staphylococcus aureus [32] = assay: Inhibition of Staphylococcus aureus Sortase A at 100 uM relative to control
Pseudomonas aeruginosa [33] = assay: Antibiofilm activity against Pseudomonas aeruginosa PAO1 assessed as inhibition of biofilm formation incubated for 24 hrs by crystal violet staining based assay; type: functional, organism-based; conditions: PAO1, 24 h
Pseudomonas aeruginosa [34] = assay: Antibiofilm activity against wild type Pseudomonas aeruginosa PAO1 assessed as inhibition of biofilm formation at 100 uM incubated for 24 hrs by crystal violet staining based analysis relative to control; type: functional; design: scale not given: the % may be the effect or the level left
Streptococcus mutans = assay: Antibiofilm activity against Streptococcus mutans ATCC 25175 assessed as inhibition of biofilm formation incubated for 24 hrs by crystal violet staining based analysis; type: functional, organism-based; conditions: ATCC 25175, 24 h
[35] = biological target: T1, Transcriptional regulator MvfR (Pseudomonas aeruginosa PA14, UniProt A0A072ZLE6); assay: Antagonist activity at PqsR in wild-type Pseudomonas aeruginosa PA14 assessed as reduction in AQ level at 0.2 uM by LCMS/MS analysis
T1 sequence (A0A072ZLE6 whole entry): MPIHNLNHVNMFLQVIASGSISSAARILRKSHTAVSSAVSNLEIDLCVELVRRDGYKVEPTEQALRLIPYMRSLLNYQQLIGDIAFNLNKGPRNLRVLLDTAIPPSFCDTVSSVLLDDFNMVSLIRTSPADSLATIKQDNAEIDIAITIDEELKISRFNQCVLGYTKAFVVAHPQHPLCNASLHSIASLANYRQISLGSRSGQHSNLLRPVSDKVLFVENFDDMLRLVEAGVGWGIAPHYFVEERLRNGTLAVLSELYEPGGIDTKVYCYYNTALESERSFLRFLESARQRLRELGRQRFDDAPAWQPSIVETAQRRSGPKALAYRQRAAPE

[36] = biological target: T1, Transcriptional regulator MvfR; assay: Antagonist activity at PqsR in wild-type Pseudomonas aeruginosa PAO1 assessed as reduction in AQ level at 0.2 uM by LCMS/MS analysis
Staphylococcus aureus [37] = assay: Antimicrobial activity against methicillin-sensitive Staphylococcus aureus ATCC 35556 assessed as reduction in microbial growth incubated for 24 hrs by broth microdilution method; type: functional, organism-based; conditions: ATCC 35556, 24 h
Staphylococcus aureus [38] = assay: Antimicrobial activity against methicillin-resistant Staphylococcus aureus ATCC 43866 assessed as reduction in microbial growth incubated for 24 hrs by broth microdilution method; type: functional, organism-based; conditions: ATCC 43866, 24 h
Staphylococcus aureus [39] = assay: Antibacterial activity against Staphylococcus aureus ATCC 25923 assessed as bacterial growth inhibition measured after 18 hrs by CLSI protocol based two-fold serial microdilution method; type: functional, organism-based; conditions: ATCC 25923, 18 h
Acinetobacter baumannii [40] = assay: Antibacterial activity against Acinetobacter baumannii ATCC 19606 assessed as growth inhibition incubated for 18 hrs by resazurin dye based assay; type: functional, organism-based; conditions: ATCC 19606, 18 h

## COc1ccc(OCCCCCCCC(=O)NNC(=O)Cn2c(=O)oc3ncccc32)cc1
[1]
  inhibition: 53%
Pseudomonas aeruginosa [2]
  Activity: 48.27%
Pseudomonas aeruginosa [3]
  Activity: 49.79%
Pseudomonas aeruginosa [4]
  Activity: 40%

## O=C(CCCCCCCCCN=C=S)CC(=O)N[C@H]1CCOC1=O
Pseudomonas aeruginosa [5]
  Activity: 50%

## O=C1C=C(c2ccc(F)cc2)/C(=C/Sc2ccccn2)N1
Pseudomonas aeruginosa [6]
  IC50: 32 µM

## CCOC(=O)c1nn(-c2ccc(Cl)cc2)cc1C(=O)c1cc2cc(CN3CCN(Cc4ccc5oc(C(=O)c6cn(-c7ccc(Cl)cc7)nc6C(=O)OCC)cc5c4)CC3)ccc2o1
Staphylococcus aureus [7]
  IC50: 4.2 µM

## COc1ccc(CC(=O)[N-]c2c([N+]#N)c(C)nn2C)cc1
Staphylococcus aureus [8]
  Activity: 45.7%
Staphylococcus aureus [9]
  Activity: 25%
Staphylococcus aureus [10]
  Activity: 38%

## COc1ccccc1/C=C/C(=O)c1ccccc1O
Pseudomonas aeruginosa [11]
  Activity: 57%

## CCCCCCCCc1ccc(C(F)(F)F)nc1OCc1cn(C#N)nn1
Staphylococcus aureus [12]
  MIC: 9.37 µM
Staphylococcus aureus [13]
  MIC: 9.37 µM (≈ 3.57 µg/mL)
Micrococcus luteus
  MIC: 18.8 µM (≈ 7.15 µg/mL)

## COc1ccc(CC(=O)OC2OC(=O)C(Br)=C2Br)cc1OC (centres undefined)
Pseudomonas aeruginosa [14]
  Activity: 63%

## O=C(/C=C/c1ccc(O)c(O)c1)OCCc1ccc(Br)cc1
Pseudomonas aeruginosa [15]
  Activity: 33.69%
Pseudomonas aeruginosa [16]
  MIC: > 512 µM

## Cc1ccc(NC(=O)Cn2c(N)nc(Cc3ccc(C(C)(C)C)cc3)c2-c2ccccc2Br)cc1
Pseudomonas aeruginosa [17]
  IC50: 100 µM

## Nc1nc2ccccc2[nH]1
Pseudomonas aeruginosa [18]
  IC50: 47 µM

## CCCCCCSSc1nc2ccccc2c(=O)[nH]1
[19]
  inhibition: 94%
Pseudomonas aeruginosa [20]
  Activity: 46%
Pseudomonas aeruginosa [21]
  Activity: 43%
Pseudomonas aeruginosa [22]
  Activity: 38%

## O=C(CCCOc1cccc(Br)c1)NC1CCSC1=O (centres undefined)
Pseudomonas aeruginosa [23]
  Activity: 62%
[24]
  IC50: 8 µM

## O=C(/C=C/c1ccc(C(F)(F)F)cc1)c1ccccc1O
Acinetobacter baumannii [25]
  Activity: 56.8%
Pseudomonas aeruginosa [26]
  Activity: 21.91%
Pseudomonas aeruginosa [27]
  Activity: 31.74%

## CC[C@H]1OC(=O)[C@H](C)[C@@H](O[C@H]2C[C@@](C)(OC)[C@@H](O)[C@H](C)O2)[C@H](C)[C@@H](O[C@@H]2O[C@H](C)C[C@H](N(C)C)[C@H]2O)[C@](C)(OC)C[C@@H](C)C(=O)[C@H](C)[C@@H](O)[C@]1(C)O [CLARITHROMYCIN]
Pseudomonas aeruginosa [28]
  Activity: 29.11%

## Nc1nc2cc(NC(=O)c3c(Cl)c(Cl)c(Cl)c(Cl)c3C(=O)O)ccc2[nH]1
Staphylococcus aureus [29]
  IC50: 1500 nM
Staphylococcus aureus [30]
  EC50: < 8 µM
Enterococcus faecium
  EC50: 75 µM

## CC(C)(C)OC(=O)NCCn1cc(-c2nc(-c3c[nH]c4ncccc34)cs2)c2ccccc21
Staphylococcus aureus [31]
  IC50: 12 µM
Staphylococcus aureus [32]
  inhibition: 47.8%

## Cc1cccc(/C=C2/C(c3cccc(C)c3)=CC(=O)N2Cc2ccccc2)c1
Pseudomonas aeruginosa [33]
  IC50: 260 nM
[24]
  IC50: 0.28 µM

## Nc1nc2ccc(/C=C/c3ccccc3)cc2[nH]1
Pseudomonas aeruginosa [34]
  Activity: 56%

## CCOC(=O)c1nn(-c2ccc([N+](=O)[O-])cc2)cc1C(=O)c1cc2cc(CN3CCN(Cc4ccc5oc(C(=O)c6cn(-c7ccc([N+](=O)[O-])cc7)nc6C(=O)OCC)cc5c4)CC3)ccc2o1
Streptococcus mutans
  IC50: 5.8 µM

## O=CN1N=C(c2ccccc2)CC1c1cccc(Nc2ccnc3cc(Cl)ccc23)c1 (centres undefined)
[35]
  IC50: 2300 nM
[36]
  IC50: 12.4 µM

## Cn1c(C(=O)N/N=C/c2ccc(Oc3c(Cl)cccc3Cl)cc2)cc(Br)c1Br
Staphylococcus aureus [37]
  IC50: 0.39 µg/mL
Staphylococcus aureus [38]
  IC50: 0.78 µg/mL

## C/C(=C\c1ccccc1)Cn1cc(CCCCCc2c[nH]c(N)n2)nn1
Staphylococcus aureus [39]
  IC50: 810 nM
Acinetobacter baumannii [40]
  IC50: 980 nM

— ChEMBL document CHEMBL5512599, “Synthetic non-toxic anti-biofilm agents as a strategy in combating bacterial resistance” (Eur J Med Chem, 2023)
